Marks after values point to notes of the source that are not given here.
Columns and labels:
[1] = tested on: S6 ribosomal protein phosphorylation (Ser235/236) in PBMCs; test: PBMC phospho/total S6RP analysis; format: in vivo, human; conditions: PBMCs of patients, baseline to 1 month of treatment (with vatalanib)
[2] = Pharmacokinetic assessments in patient plasma; format: in vivo, human
[3] = tested on: patients with advanced solid tumors; conditions: oral
solid tumors = conditions: cited from earlier work
[4] = everolimus with vatalanib, day 29, mean ± SD
[5] = vatalanib after everolimus started, day 29, mean ± SD
[6] = vatalanib alone, day 14, mean ± SD

CO[C@H]1C[C@@H]2CC[C@@H](C)[C@@](O)(O2)C(=O)C(=O)N2CCCC[C@H]2C(=O)O[C@H]([C@H](C)C[C@@H]2CC[C@@H](OCCO)[C@H](OC)C2)CC(=O)[C@H](C)/C=C(\C)[C@@H](O)[C@@H](OC)C(=O)[C@H](C)C[C@H](C)/C=C/C=C/C=C/1C [Everolimus]
Mean change in phospho/total ratio of S6RP [1]: no mean change
CLss/F [2, 4]: 14.3 ± 3.7 L/h
Cssavg [2, 4]: 15.7 ± 4.9 ng/mL
Cssmax [2, 4]: 48.5 ± 14.8 ng/mL
Time of peak of mean plasma concentration ([2]; everolimus, cycle 1 day 29, mean concentration-time curve (Fig. 3B)): 2 h
Vd/F ([2]; human, plasma, oral): 216 ± 74 L
AUC ([2]; human, plasma, oral, everolimus with vatalanib, day 29, 24-hour dosing interval, mean ± SD): 377 ± 117 ng·h/mL
half-life ([2]; human, plasma, oral, t1/2, everolimus with vatalanib, day 29, mean ± SD): 14 ± 2.5 h
Tmax ([2]; human, plasma, oral, tmax, everolimus with vatalanib, day 29, median (range)): 1.31 h
Maximum tolerated dose (MTD) of everolimus in the combination ([3]; combined with vatalanib 1000 mg daily): 5 mg daily

Clc1ccc(Nc2nnc(Cc3ccncc3)c3ccccc23)cc1 [Vatalanib]
Daily dose with radiographic evidence of a decrease in tumor blood flow (solid tumors; several clinical trials): ≥ 1000 mg
Tolerable dosing (solid tumors; single agent, clinical trials): ≤ 2000 mg daily
Effect of adding everolimus on systemic exposure of vatalanib (AUC) ([2]; day 14 vs day 29): not significantly affected
Effect of everolimus on the PK parameters of vatalanib (maximum or steady-state plasma concentrations) ([2]; day 14 vs day 29): no substantial effect
Vd/F ([2]; human, plasma, oral): 488 ± 481 L
AUC ([2]; human, plasma, oral, vatalanib after everolimus started, day 29, 24-hour dosing interval, mean ± SD): 21600 ng·h/mL
AUC ([2]; human, plasma, oral, vatalanib alone, day 14, 24-hour dosing interval, mean ± SD): 26400 ng·h/mL
half-life ([2]; human, plasma, oral, t1/2, vatalanib after everolimus started, day 29, mean ± SD): 5.7 h
half-life ([2]; human, plasma, oral, t1/2, vatalanib alone, day 14, steady state, plasma, mean ± SD): 6.3 h
Tmax ([2]; human, plasma, oral, tmax, vatalanib after everolimus started, day 29, median (range)): 2 h
Tmax ([2]; human, plasma, oral, tmax, vatalanib alone, day 14, median (range)): 2 h
Cssavg [2, 5]: 901 ± 403 ng/mL
Cssmax [2, 5]: 3963 ± 1861 ng/mL
t1/2 [2, 5]: 5.71 ± 3.06 h
Tmax ([2]; vatalanib after everolimus started, day 29, median (range)): 2.08 (1.00-4.08) ^a h
Cssavg [2, 6]: 1099 ± 551 ng/mL
Cssmax [2, 6]: 4825 ± 2910 ng/mL
t1/2 ([2]; vatalanib alone, day 14, steady state, plasma, mean ± SD): 6.32 ± 4.46 h
Maximum tolerated dose (MTD) of vatalanib in the combination ([3]; combined with everolimus 5 mg daily): 1000 mg daily
